This is an account of results in ChEMBL document CHEMBL5331071, “Structure-activity relationship study of amidobenzimidazole derivatives as stimulator of interferon genes (STING) agonists” (Eur J Med Chem, 2023).

The target of series [1] is T1, Stimulator of interferon genes protein (Mus musculus) (UniProt Q3TBT3).
T1 sequence (whole entry): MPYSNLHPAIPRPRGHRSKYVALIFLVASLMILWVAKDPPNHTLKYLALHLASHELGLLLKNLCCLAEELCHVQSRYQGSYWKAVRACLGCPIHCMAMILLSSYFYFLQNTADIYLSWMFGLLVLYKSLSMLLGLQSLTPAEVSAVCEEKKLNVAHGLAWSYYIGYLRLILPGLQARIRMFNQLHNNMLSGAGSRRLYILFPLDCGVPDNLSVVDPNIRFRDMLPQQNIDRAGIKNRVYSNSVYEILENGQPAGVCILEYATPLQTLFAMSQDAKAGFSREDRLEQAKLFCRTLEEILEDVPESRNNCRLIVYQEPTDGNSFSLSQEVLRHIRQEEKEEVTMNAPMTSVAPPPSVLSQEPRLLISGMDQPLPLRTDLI
Put plainly: Activation of STING in mouse RAW264.7 cells assessed as increase in TBK1 phosphorylation at 10 to 100 uM incubated for 4 hrs by Western blot analysis. The format is cell-based. The conditions noted are these: dose 10-100 µM.

For series [2], the target named is T2, Stimulator of interferon genes protein (Homo sapiens, UniProt Q86WV6). Put plainly: Activation of STING signalling pathway in human PBMC cells assessed as increase in STING phosphorylation at 10 uM measured after 1 hr by Western blot analysis. The format is cell-based. As to conditions: filed as agonist.
The target in series [3] is T2, Stimulator of interferon genes protein. Put plainly: Activation of STING signalling pathway in human PBMC cells assessed as increase in TBK1 phosphorylation at 10 uM measured after 1 hr by Western blot analysis. The format is cell-based. The conditions noted are these: filed as agonist. A general note: Immunoblotting shows a protein as a band on a membrane.
Series [4] has the same target. Put plainly: Activation of STING signalling pathway in human PBMC cells assessed as increase in IL-6 level incubated for 4 hrs by ELISA method. The format is cell-based. For orientation: An ELISA detects its analyte on a solid surface through an enzyme-linked reagent.
Series [5] shares this target. Put plainly: Activation of STING signalling pathway in human PBMC cells assessed as increase in STING phosphorylation at 55.68 uM measured after 1 hr by Western blot analysis. The format is cell-based.
For series [6], the target named is T1, Stimulator of interferon genes protein (Mus musculus). Put plainly: Activation of STING in mouse RAW264.7 cells assessed as increase in IL-6 expression at 10 to 100 uM incubated for 24 hrs by qRT-PCR analysis. It is filed as cell-based. The conditions noted are these: dose 10-100 µM. (Quantitative PCR measures a nucleic acid by following its amplification.)

The target of series [7] is T2, Stimulator of interferon genes protein. Put plainly: Activation of STING signaling pathway in human wild type THP-1 cells assessed as increase in IFN-beta mRNA level at 50 uM measured after 4 hrs by qRT-PCR analysis. It is filed as cell-based. The conditions noted are these: filed as agonist.
For series [8] the target is unchanged. Put plainly: Activation of STING signalling pathway in human wild type THP-1 cells assessed as increase in IRF3 phosphorylation at 10 uM measured after 1 hr by Western blot analysis. The conditions noted are these: filed as agonist. The format is cell-based.
The target is the same in series [9]. Put plainly: Activation of STING signalling pathway in human THP-1 cells assessed as increase in IL-6 level incubated for 4 hrs by ELISA method. It is filed as cell-based. As to conditions: filed as agonist, dose 3.7-33.3 pg/ml.
Series [10] shares this target. Put plainly: Activation of STING signalling pathway in human PBMC cells assessed as increase in IRF3 phosphorylation at 10 uM measured after 1 hr by Western blot analysis. The format is cell-based. As to conditions: filed as agonist.
Series [11] concerns the target T1, Stimulator of interferon genes protein (Mus musculus). Put plainly: Activation of STING in mouse RAW264.7 cells assessed as increase in IFN-beta expression at 10 to 100 uM incubated for 24 hrs by qRT-PCR analysis. The format is cell-based. As to conditions: dose 10-100 µM.
In series [12] the target is T2, Stimulator of interferon genes protein. Put plainly: Activation of STING signalling pathway in human wild type THP-1 cells assessed as increase in IFN-beta secretion incubated for 4 hrs by ELISA method. It is filed as cell-based.
Series [13] has the same target. Put plainly: Activation of STING signalling pathway in human wild type THP-1 cells assessed as increase in TBK1 phosphorylation at 10 uM measured after 1 hr by Western blot analysis. It is filed as cell-based. The conditions noted are these: filed as agonist.
Series [14] has as its target T3, Stimulator of interferon genes protein (Mus musculus, UniProt Q3TBT3).
T3 sequence (Q3TBT3 whole entry): T1 sequence (whole entry)
Put plainly: Agonist activity at STING in mouse RAW-Lucia ISG cells by luciferase gene reporter assay. It is filed as cell-based.

Series [15] concerns the target T2, Stimulator of interferon genes protein. Put plainly: Activation of STING signaling pathway in human wild type THP-1 cells assessed as increase in IL-6 mRNA level at 50 uM measured after 4 hrs by qRT-PCR analysis. The format is cell-based. The conditions noted are these: filed as agonist.
The target is the same in series [16]. Put plainly: Activation of STING signalling pathway in human THP1-Dual cells assessed as increase in NF-kappaB-SEAP activation incubated for 24 hrs by QUANTI-Blue reagent based assay. It is filed as cell-based.
The target is the same in series [17]. Put plainly: Activation of STING signaling pathway in human PBMC cells assessed as increase in IFN-beta mRNA level at 0.1 to 1 uM measured after 4 hrs by qRT-PCR analysis. The format is cell-based. As to conditions: filed as agonist, dose 0.1-1 µM.
Series [18] has the same target. Put plainly: Activation of STING signalling pathway in human PBMC cells assessed as increase in CXCL10 level incubated for 4 hrs by ELISA method. It is filed as cell-based.
The target is the same in series [19]. Put plainly: Activation of STING signalling pathway in human PBMC cells assessed as increase in IFN-beta level incubated for 4 hrs by ELISA method. It is filed as cell-based.
Series [20] shares this target. Put plainly: Activation of STING signalling pathway in human THP-1 cells assessed as increase in TNF-alpha level incubated for 4 hrs by ELISA method. The format is cell-based. As to conditions: filed as agonist, dose 3.7-33.3 pg/ml.
For series [21] the target is unchanged. Put plainly: Activation of STING signaling pathway in human wild type THP-1 cells assessed as increase in CXCL10 mRNA level at 50 uM measured after 4 hrs by qRT-PCR analysis. The conditions noted are these: filed as agonist. The format is cell-based.
For series [22] the target is unchanged. Put plainly: Activation of STING signaling pathway in human PBMC cells assessed as increase in IL-6 mRNA level at 0.1 to 1 uM measured after 4 hrs by qRT-PCR analysis. The format is cell-based. The conditions noted are these: filed as agonist, dose 0.1-1 µM.
Series [23] has the same target. Put plainly: Activation of STING signaling pathway in human PBMC cells assessed as increase in CXCL10 mRNA level at 0.1 to 1 uM measured after 4 hrs by qRT-PCR analysis. It is filed as cell-based. The conditions noted are these: filed as agonist, dose 0.1-1 µM.
The target is the same in series [24]. Put plainly: Activation of STING signalling pathway in human THP-1 cells assessed as increase in CXCL10 level incubated for 4 hrs by ELISA method. The format is cell-based. As to conditions: filed as agonist, dose 0.046-0.421 pg/ml.
Series [25] in a line: Metabolic stability in Sprague-Dawley rat plasma assessed as compound remaining measured after 1 hr by LC-MS/MS analysis. The format is ADME, cell-free. As to conditions: read-out: Stability.
For series [26], the target named is T2, Stimulator of interferon genes protein. Put plainly: Agonist activity at STING in human THP1-Dual cells incubated for 20 hrs by Quanti-luc reagent based assay. It is filed as cell-based.
Series [27] has the same target. Put plainly: Activation of STING signalling pathway in human wild type THP-1 cells assessed as increase in STING phosphorylation at 10 uM measured after 1 hr by Western blot analysis. The format is cell-based. The conditions noted are these: filed as agonist.
Series [28] has the same target. Put plainly: Activation of STING signalling pathway in human THP1-Dual cells assessed as increase in IRF-luciferase activation incubated for 24 hrs by QUANTI-luc assay. The format is cell-based.
For series [29] the target is unchanged. Put plainly: Agonist activity at STING in human […] KO-STING cells incubated for 20 hrs by Quanti-luc reagent based assay. It is filed as cell-based, THP1-Dual KO-STING.
Series [30] has as its target T1, Stimulator of interferon genes protein (Mus musculus). Put plainly: Activation of STING in mouse RAW264.7 cells assessed as increase in IRF3 phosphorylation at 10 to 100 uM incubated for 4 hrs by Western blot analysis. It is filed as cell-based. The conditions noted are these: dose 10-100 µM.
The nature of series [31]: Metabolic stability in Sprague-Dawley rat plasma assessed as compound remaining measured after 2 hrs by LC-MS/MS analysis. The format is ADME, cell-free. The conditions noted are these: read-out: Stability.
The target of series [32] is T1, Stimulator of interferon genes protein (Mus musculus). Put plainly: Activation of STING in mouse RAW264.7 cells assessed as increase in CXCL10 expression at 10 to 100 uM incubated for 24 hrs by qRT-PCR analysis. It is filed as cell-based. As to conditions: dose 10-100 µM.
Another series deals with THP1-Dual. Put plainly: Cytotoxicity against human THP1-Dual habouring STING assessed as inhibition of cell growth by MTS assay. The format is functional, cell-based.
Series [33] in a line: Cytotoxicity against human THP1-Dual KO-STING cells assessed as inhibition of cell growth by MTS assay. It is filed as functional, cell-based.
Series [34] can be described thus: Stability in rat plasma assessed as residual of initial concentration at 1 hr. It is filed as ADME, cell-free. As to conditions: read-out: Stability.

Activity calls are given as the source filed them. The calls are words filed in the database; no cut-off is given here.

For orientation: EC50 means the midpoint of the concentration-response curve. What is called IC50 is the point on the concentration scale where inhibition reaches its midpoint.

T2 sequence (Q86WV6 whole entry): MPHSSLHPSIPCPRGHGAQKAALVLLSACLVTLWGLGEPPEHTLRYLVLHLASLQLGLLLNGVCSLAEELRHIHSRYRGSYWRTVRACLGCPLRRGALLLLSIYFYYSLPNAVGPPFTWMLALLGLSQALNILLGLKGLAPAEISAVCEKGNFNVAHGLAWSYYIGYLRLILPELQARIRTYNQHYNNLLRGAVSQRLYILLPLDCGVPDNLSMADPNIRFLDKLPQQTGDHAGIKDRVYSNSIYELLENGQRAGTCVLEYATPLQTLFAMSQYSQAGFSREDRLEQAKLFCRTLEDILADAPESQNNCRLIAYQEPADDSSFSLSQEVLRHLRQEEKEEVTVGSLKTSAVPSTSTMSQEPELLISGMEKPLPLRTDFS

For the molecule `CCn1nc(C)cc1C(=O)Nc1nc2cc(C(N)=O)cc(OC)c2n1NCCCC(=O)NCc1ccc(F)cc1`, the outcome in series [1], in [5], in [6], in series [11], in series [30] and in series [32] was inactive. The outcome in series [2], in series [3], in series [7], in series [8], in series [10] and in [13] was Active. Further, the result in series [15], in series [17], in series [21], in series [22], in series [23] and in series [27] was Active. The EC50 in series [4] was 30 nM; in [12], 4.74 µM; in series [14], more than 100 µM; in series [16] it was 5.5 µM; in series [18], 120 nM; in series [19] it was 270 nM. The values for the EC50 in [26], in series [28] and in series [29] were 1580 nM, 3.2 µM and more than 100 µM, respectively. Moreover, the Activity result is “Dose-Dependent Effect” in series [4] (filed as agonist, dose 0.006-0.16 µM); “Dose-Dependent Effect” in series [9]; “Dose-Dependent Effect” in [12] (filed as agonist); “Dose-Dependent Effect” in series [16] (filed as agonist); “Dose-Dependent Effect” in series [18] (filed as agonist, dose 0.046-0.412 µM); “Dose-Dependent Effect” in [19] (filed as agonist, dose 0.137-1.235 µM). The Activity result in series [20], in series [24] and in [28] (filed as agonist) was “Dose-Dependent Effect” in each case. Also, the remaining at 1 h in [25] came out at 78.7%. For the same molecule, the remaining at 2 h in [31] was 60.5%. Besides, the half-maximal inhibitory concentration (IC50) (in the series with THP1-Dual; in series [33]) was more than 100 µM throughout.
Turning to `CCn1nc(C)cc1C(=O)Nc1nc2cc(C(N)=O)cc(OCCCOC)c2n1CCCNC(=O)OCc1ccccc1`, in [34], the remaining at 1 h was 36.4%.
Take `CCn1nc(C)cc1C(=O)Nc1nc2cc(C(N)=O)cc(OCCCOC)c2n1NCCCC(=O)NCc1ccc(F)cc1`: the results for the EC50 in [26] and in [29] were 2960 nM and more than 100 µM, respectively. The half-inhibitory concentration (IC50) (in the series with THP1-Dual; in series [33]) was more than 100 µM each time.
